Measured values taken from patent publication US20210380683A1, “MODULATION OF IRF-4 AND USES THEREOF” (THE METHODIST HOSPITAL SYSTEM, priority 2018, published 2021).

System: Balb/c heart allograft in WT B6 mice
Assay: Balb/c heart allograft survival in WT B6 recipients
Assay type: in vivo, mouse
Conditions: 3 mg/kg every other day from day 0 to day 12; WT B6 recipients of Balb/c hearts
Method: Murine heterotopic heart transplantation. Heart transplantation in mice was performed by a previously described method (Miyahara et al., 2012; Chen et al., 2007). In brief, hearts from Balb/c donors were transplanted into 8 to 10-week-old male WT B6, Irf4^fl/flCd4-Cre, CD45.1+ congenic, or Rag1−/− recipient mice. Pulmonary artery and aorta of donor heart were cut open, remaining heart vessels were tied off, and heart was removed. […] Anastomosis was made by 11-0 sutures running continuously. 6-0 silk thread was removed, and abdomen was then closed by 5-0 sutures in two layers. Heart graft survival was monitored daily by palpation, and the day of complete cessation of heartbeat was considered as the day of rejection. Recipient mice were i.p. injected with Rat IgG, anti-PD-L1 (10F.9G2), anti-CTLA-4 (9D9), anti-CD4 (GK1.5), anti-CD8 (53-6.7), or anti-CD25 (PC-61.5.3) mAbs obtained from Bio-X-Cell (West Lebanon, N.H.), oral gavaged with trametinib (Selleck Chemicals, Houston, Tex.) or corn oil, or i.v. transferred with WT B6, Irf4^−/−, TEa, TEa Irf4^−/−, or IRF4 re-introduced Irf4^−/− T cells. At various days post-transplant, splenocytes and graft infiltrating cells were obtained for flow cytometry analysis, and allografts were sectioned and stained with hematoxylin and eosin for microscopic evaluation.

## CC(=O)Nc1cccc(-n2c(=O)n(C3CC3)c(=O)c3c(Nc4ccc(I)cc4F)n(C)c(=O)c(C)c32)c1 [trametinib]
  heart allograft survival (MST): 13.17±0.75 days
